Source: PubChem BioAssay AID1963421 (Molecular Pharmacology Branch, DTP, NCI, 2024)

System: 519858-162-T-J1-PDC complex spheroid growth, % test/control
Experiment: Anticancer human tumor 519858-162-T-J1-PDC patient-derived colon adenocarcinoma cell line growth inhibition [Asc]
Details: for IC50: curve of first compound; for viability, T/C: stronger effect = lower value
Procedure, shortened: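 Spheroid model: tumor line + HUVEC + hMSC. Single agents and combinations; top conc. at/near clinical Cmax (10 microM if undetermined), half-log dilutions. DMSO stocks at 800-fold test concentration.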

[1] = second compound 0.00316 µM, first compound 0.00316 µM
[2] = second compound 0.00316 µM, first compound 0.01 µM
[3] = second compound 0.00316 µM, first compound 0.0316 µM
[4] = second compound 0.00316 µM, first compound 0.1 µM
[5] = second compound 0.00316 µM, first compound 0.316 µM
[6] = second compound 0.00316 µM, first compound 1 µM
[7] = second compound 0.01 µM, first compound 0.00316 µM
[8] = second compound 0.01 µM, first compound 0.01 µM
[9] = second compound 0.01 µM, first compound 0.0316 µM
[10] = second compound 0.01 µM, first compound 0.1 µM
[11] = second compound 0.01 µM, first compound 0.316 µM
[12] = second compound 0.01 µM, first compound 1 µM
[13] = second compound 0.0316 µM, first compound 0.00316 µM
[14] = second compound 0.0316 µM, first compound 0.01 µM
[15] = second compound 0.0316 µM, first compound 0.0316 µM
[16] = second compound 0.0316 µM, first compound 0.1 µM
[17] = second compound 0.0316 µM, first compound 0.316 µM
[18] = second compound 0.0316 µM, first compound 1 µM
[19] = second compound 0.1 µM, first compound 0.00316 µM
[20] = second compound 0.1 µM, first compound 0.01 µM
[21] = second compound 0.1 µM, first compound 0.0316 µM
[22] = second compound 0.1 µM, first compound 0.1 µM
[23] = second compound 0.1 µM, first compound 0.316 µM
[24] = second compound 0.1 µM, first compound 1 µM
[25] = second compound 0.316 µM, first compound 0.00316 µM
[26] = second compound 0.316 µM, first compound 0.01 µM
[27] = second compound 0.316 µM, first compound 0.0316 µM
[28] = second compound 0.316 µM, first compound 0.1 µM
[29] = second compound 0.316 µM, first compound 0.316 µM
[30] = second compound 0.316 µM, first compound 1 µM
[31] = second compound 1 µM, first compound 0.00316 µM
[32] = second compound 1 µM, first compound 0.01 µM
[33] = second compound 1 µM, first compound 0.0316 µM
[34] = second compound 1 µM, first compound 0.1 µM
[35] = second compound 1 µM, first compound 0.316 µM
[36] = second compound 1 µM, first compound 1 µM
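Also: seven day drug exposure begun three days after spheroid seeding.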
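For viability, T/C in this document: 100% = DMSO vehicle wells and lower values mean less viable spheroid.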

CCN1CCN(Cc2ccc(Nc3ncc(F)c(-c4cc(F)c5nc(C)n(C(C)C)c5c4)n3)nc2)CC1 + CNC(C)C(=O)NC1CN(S(=O)(=O)c2cccc(S(=O)(=O)N3CCC4CCC(C(=O)NC(c5ccccc5)c5ccccc5)N4C(=O)C(NC(=O)C(C)NC)C3)c2)CCC2CCC(C(=O)NC(c3ccccc3)c3ccccc3)N2C1=O
IC50 (second compound 0.00316 µM): > 1000 nM
IC50 (second compound 0.01 µM): > 1000 nM
IC50 (second compound 0.0316 µM): > 1000 nM
IC50 (second compound 0.1 µM): > 1000 nM
IC50 (second compound 0.316 µM): > 1000 nM
IC50 (second compound 1 µM): > 1000 nM
viability, T/C [1]: 98%
viability, T/C [2]: 99.6%
viability, T/C [3]: 127%
viability, T/C [4]: 115%
viability, T/C [5]: 84.4%
viability, T/C [6]: 70%
viability, T/C [7]: 108%
viability, T/C [8]: 107%
viability, T/C [9]: 95.1%
viability, T/C [10]: 64.7%
viability, T/C [11]: 79.1%
viability, T/C [12]: 93%
viability, T/C [13]: 116%
viability, T/C [14]: 112%
viability, T/C [15]: 94.8%
viability, T/C [16]: 96.6%
viability, T/C [17]: 86.4%
viability, T/C [18]: 77.2%
viability, T/C [19]: 128%
viability, T/C [20]: 120%
viability, T/C [21]: 106%
viability, T/C [22]: 89.3%
viability, T/C [23]: 84.2%
viability, T/C [24]: 76.3%
viability, T/C [25]: 77%
viability, T/C [26]: 91.7%
viability, T/C [27]: 120%
viability, T/C [28]: 67.6%
viability, T/C [29]: 47.6%
viability, T/C [30]: 71.7%
viability, T/C [31]: 115%
viability, T/C [32]: 117%
viability, T/C [33]: 107%
viability, T/C [34]: 80.1%
viability, T/C [35]: 77.9%
viability, T/C [36]: 83.4%

NC(=O)C(=Cn1cnc(-c2cc(C(F)(F)F)cc(C(F)(F)F)c2)n1)c1cncnc1 + CNC(C)C(=O)NC1CN(S(=O)(=O)c2cccc(S(=O)(=O)N3CCC4CCC(C(=O)NC(c5ccccc5)c5ccccc5)N4C(=O)C(NC(=O)C(C)NC)C3)c2)CCC2CCC(C(=O)NC(c3ccccc3)c3ccccc3)N2C1=O
IC50 (second compound 0.00316 µM): > 300 nM
IC50 (second compound 0.01 µM): > 300 nM
IC50 (second compound 0.0316 µM): > 300 nM
IC50 (second compound 0.1 µM): > 300 nM
IC50 (second compound 0.316 µM): > 300 nM
IC50 (second compound 1 µM): > 300 nM
viability, T/C (second compound 0.00316 µM, first compound 0.000949 µM): 139%
viability, T/C (second compound 0.00316 µM, first compound 0.003 µM): 116%
viability, T/C (second compound 0.00316 µM, first compound 0.00949 µM): 102%
viability, T/C (second compound 0.00316 µM, first compound 0.03 µM): 83.8%
viability, T/C (second compound 0.00316 µM, first compound 0.0949 µM): 71.7%
viability, T/C (second compound 0.00316 µM, first compound 0.3 µM): 71.2%
viability, T/C (second compound 0.01 µM, first compound 0.000949 µM): 91.2%
viability, T/C (second compound 0.01 µM, first compound 0.003 µM): 80%
viability, T/C (second compound 0.01 µM, first compound 0.00949 µM): 67.5%
viability, T/C (second compound 0.01 µM, first compound 0.03 µM): 70.7%
viability, T/C (second compound 0.01 µM, first compound 0.0949 µM): 67%
viability, T/C (second compound 0.01 µM, first compound 0.3 µM): 55.6%
viability, T/C (second compound 0.0316 µM, first compound 0.000949 µM): 87%
viability, T/C (second compound 0.0316 µM, first compound 0.003 µM): 85.7%
viability, T/C (second compound 0.0316 µM, first compound 0.00949 µM): 80.1%
viability, T/C (second compound 0.0316 µM, first compound 0.03 µM): 54.8%
viability, T/C (second compound 0.0316 µM, first compound 0.0949 µM): 65%
viability, T/C (second compound 0.0316 µM, first compound 0.3 µM): 63.5%
viability, T/C (second compound 0.1 µM, first compound 0.000949 µM): 99.2%
viability, T/C (second compound 0.1 µM, first compound 0.003 µM): 96.3%
viability, T/C (second compound 0.1 µM, first compound 0.00949 µM): 98.4%
viability, T/C (second compound 0.1 µM, first compound 0.03 µM): 67.8%
viability, T/C (second compound 0.1 µM, first compound 0.0949 µM): 50.1%
viability, T/C (second compound 0.1 µM, first compound 0.3 µM): 71.2%
viability, T/C (second compound 0.316 µM, first compound 0.000949 µM): 86.3%
viability, T/C (second compound 0.316 µM, first compound 0.003 µM): 105%
viability, T/C (second compound 0.316 µM, first compound 0.00949 µM): 67.1%
viability, T/C (second compound 0.316 µM, first compound 0.03 µM): 65.7%
viability, T/C (second compound 0.316 µM, first compound 0.0949 µM): 69.5%
viability, T/C (second compound 0.316 µM, first compound 0.3 µM): 67.6%
viability, T/C (second compound 1 µM, first compound 0.000949 µM): 88.4%
viability, T/C (second compound 1 µM, first compound 0.003 µM): 71.4%
viability, T/C (second compound 1 µM, first compound 0.00949 µM): 76.5%
viability, T/C (second compound 1 µM, first compound 0.03 µM): 51.4%
viability, T/C (second compound 1 µM, first compound 0.0949 µM): 72.3%
viability, T/C (second compound 1 µM, first compound 0.3 µM): 109%

O=C(c1ccc(F)c(F)c1Nc1ccc(I)cc1F)N1CC(O)([C@@H]2CCCCN2)C1 + CNC(C)C(=O)NC1CN(S(=O)(=O)c2cccc(S(=O)(=O)N3CCC4CCC(C(=O)NC(c5ccccc5)c5ccccc5)N4C(=O)C(NC(=O)C(C)NC)C3)c2)CCC2CCC(C(=O)NC(c3ccccc3)c3ccccc3)N2C1=O
IC50 (second compound 0.00316 µM): 316 nM
IC50 (second compound 0.01 µM): 224 nM
IC50 (second compound 0.0316 µM): 284 nM
IC50 (second compound 0.1 µM): 241 nM
IC50 (second compound 0.316 µM): 254 nM
IC50 (second compound 1 µM): 268 nM
viability, T/C [1]: 119%
viability, T/C [2]: 133%
viability, T/C [3]: 95.9%
viability, T/C [4]: 111%
viability, T/C [5]: 49.7%
viability, T/C [6]: 13.8%
viability, T/C [7]: 93.9%
viability, T/C [8]: 112%
viability, T/C [9]: 74.7%
viability, T/C [10]: 86.2%
viability, T/C [11]: 34.6%
viability, T/C [12]: 18.8%
viability, T/C [13]: 121%
viability, T/C [14]: 107%
viability, T/C [15]: 79.7%
viability, T/C [16]: 101%
viability, T/C [17]: 44.2%
viability, T/C [18]: 14.3%
viability, T/C [19]: 99.4%
viability, T/C [20]: 86.4%
viability, T/C [21]: 107%
viability, T/C [22]: 84.5%
viability, T/C [23]: 39.2%
viability, T/C [24]: 13.5%
viability, T/C [25]: 80.6%
viability, T/C [26]: 122%
viability, T/C [27]: 86.8%
viability, T/C [28]: 79.2%
viability, T/C [29]: 43.5%
viability, T/C [30]: 16%
viability, T/C [31]: 77.5%
viability, T/C [32]: 89.2%
viability, T/C [33]: 117%
viability, T/C [34]: 79.7%
viability, T/C [35]: 45.4%
viability, T/C [36]: 18.6%
